Experimental data as given in paper PMC4466525, “Design, Synthesis and Structure-Activity Relationship Studies of Novel Survivin Inhibitors with Potent Anti-Proliferative Properties” (PLoS ONE, 2015).
≈ marks a conversion by molar mass, not a printed value.

How the values were obtained:
[1] = test system: other IAPs (XIAP, cIAP1, cIAP2, livin); assay: Western blotting of other IAP levels; assay type: cell-based, human; settings: 24 h, A375 and PC-3 cells
Method: Lysates of A375 cells treated by the compound solution for 24 h were used to determine the change of IAP protein levels through western blotting. Primary rabbit antibodies against survivin, XIAP, cIAP1, cIAP2, livin and GAPDH were purchased from Cell Signaling Technology, Inc. (Danvers, MA) and used according to manufacture instructions as reported previously. Protein lane intensities were quantified by ImageJ software (US National Institutes of Health, Bethesda, MD).

CYP2C9 = biological target: T1, CYP2C9 (Homo sapiens, UniProt P11712); assay: Cytochrome P450 inhibition, CYP2C9; assay type: in vitro ADME; settings: probe diclofenac, substrate diclofenac, human liver microsomes 0.1 mg/mL, read-out: % inhibition of control values, CYP2C9
T1 construct: tissue Eurofins Panlabs Inc. (contract research service) Study Number 100017964; host or cells: human liver microsomes
T1 sequence (P11712 whole entry): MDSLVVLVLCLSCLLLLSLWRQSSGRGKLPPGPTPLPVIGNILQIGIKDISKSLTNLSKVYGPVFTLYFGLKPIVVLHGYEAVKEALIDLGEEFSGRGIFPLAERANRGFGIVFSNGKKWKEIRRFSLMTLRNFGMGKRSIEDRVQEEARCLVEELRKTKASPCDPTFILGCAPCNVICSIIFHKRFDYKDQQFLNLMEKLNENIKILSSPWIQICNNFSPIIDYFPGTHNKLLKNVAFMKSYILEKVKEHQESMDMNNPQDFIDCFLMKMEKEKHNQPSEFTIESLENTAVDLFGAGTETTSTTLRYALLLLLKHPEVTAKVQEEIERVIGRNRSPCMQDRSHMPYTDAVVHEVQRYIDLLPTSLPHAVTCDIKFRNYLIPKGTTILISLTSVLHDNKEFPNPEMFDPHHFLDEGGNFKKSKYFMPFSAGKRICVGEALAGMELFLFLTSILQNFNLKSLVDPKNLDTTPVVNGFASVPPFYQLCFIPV
Method: (§1) All these experiments were performed by a contract research service company, Eurofins Panlabs Inc. (Study Number 100017964). Aqueous solubility (μM) was determined using the shake-flask method by comparing the peak area of the principal peak in a calibration standard (200 μM) containing organic solvent (methanol/water, 60/40, v/v) with the peak area of the corresponding peak in a buffer sample. Metabolic stability study was carried out by incubating compound 4g with human liver microsomes. Metabolic stability which is expressed as percent of the parent compound remaining, was calculated by comparing the peak area of the compound at the time point relative to that at time-0. The half-life (T1/2) was estimated from the slope of the initial linear range of the logarithmic curve of compound remaining (%) vs. time. In the cytochrome P450 inhibition study, human liver microsomes (0.1 mg/mL) were incubated with different substrates and compound 4g for 10 minutes. After the incubation, peak areas corresponding to the metabolite of each substrate were recorded. The percent of control activity was then calculated by comparing the peak area obtained in the presence of compound 4g to that obtained in the absence of compound 4g. Subsequently, the percent inhibition was calculated by subtracting the percent control activity from 100.

[2] = Aqueous solubility, shake-flask method; assay type: physicochemical; settings: PBS buffer, thermodynamic from solid, PBS pH 7.4, test concentration 200 μM
Method: as §1

PC-3 = assay: Cell viability (MTS) anti-proliferative assay, PC-3; assay type: cell-based; settings: PC-3 human prostate cancer, 48 h treatment, n = 4, read-out: IC50 values ± SEM, PC-3
Method: (§2) The anti-proliferative effect of UC-112 and its analogs were tested in human melanoma (A375, M14 and M14/LCC6MDR1) and human prostate cancer (PC-3) cell lines. All the cell lines were purchased from ATCC (American Type Culture Collection, Manassas, VA). The cancer cells were cultured using the supplemented cell culture medium as described before at 37°C in a humidified atmosphere containing 5% CO2. 5000 cells in logarithm growing phase were seeded overnight into each well of a 96-well plate. Then the cells were continuously incubated with sequential diluted compound solution (10 nM to 100 μM, 100 μl per well) in cell culture medium.

A375 = assay: Cell viability (MTS) anti-proliferative assay, A375; assay type: cell-based; settings: A-375, A375 human melanoma, 48 h treatment, n = 4, read-out: IC50 values ± SEM, A375
Method: as §2

CYP2B6 = biological target: T2, CYP2B6 (Homo sapiens, UniProt P20813); assay: Cytochrome P450 inhibition, CYP2B6; assay type: in vitro ADME; settings: probe bupropion, substrate bupropion, human liver microsomes 0.1 mg/mL, read-out: % inhibition of control values, CYP2B6
T2 construct: tissue Eurofins Panlabs Inc. (contract research service) Study Number 100017964; host or cells: human liver microsomes
T2 sequence (P20813 whole entry): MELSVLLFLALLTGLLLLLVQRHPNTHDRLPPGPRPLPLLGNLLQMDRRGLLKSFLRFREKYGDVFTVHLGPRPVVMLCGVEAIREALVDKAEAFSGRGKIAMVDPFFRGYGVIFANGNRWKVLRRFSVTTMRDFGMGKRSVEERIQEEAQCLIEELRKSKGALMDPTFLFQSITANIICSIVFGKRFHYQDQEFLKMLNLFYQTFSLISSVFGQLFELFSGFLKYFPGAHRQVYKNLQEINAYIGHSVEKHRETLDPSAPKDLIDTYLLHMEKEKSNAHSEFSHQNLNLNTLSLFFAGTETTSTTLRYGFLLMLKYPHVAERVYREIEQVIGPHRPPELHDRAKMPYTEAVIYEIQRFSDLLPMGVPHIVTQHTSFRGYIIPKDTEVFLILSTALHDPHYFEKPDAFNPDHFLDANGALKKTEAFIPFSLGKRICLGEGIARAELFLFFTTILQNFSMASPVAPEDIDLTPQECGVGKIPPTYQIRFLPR
Method: as §1

[3] = test system: renal cancer cell line UO-31; assay: NCI-60 five dose screening, UO-31; assay type: cell-based; settings: Homo sapiens, renal cancer UO-31
Method: (§3) Four compounds including the parental compound UC-112 were submitted to National Cancer Institute for its NCI-60 cell line screening, initially tested at one concentration (10 μM), and subsequently selected for full five concentration testing following the standard protocols disclosed by NCI [34]. In brief, cells were plated into 96 well micro-titer plates 24 h prior to the treatment of compound solution for 48 h, then the cell viability was read out through absorbance of sulforhodamine B (SRB) staining.

[4] = Metabolic stability in human liver microsomes; assay type: in vitro ADME
Method: as §1

HCT-15 (colon cancer) = assay: NCI-60 five dose screening, HCT-15; assay type: cell-based; settings: Homo sapiens, colon cancer HCT-15
Method: as §3

[5] = test system: NCI/ADR-RES (ovarian cancer); assay: NCI-60 five dose screening, NCI/ADR-RES; assay type: cell-based; settings: Homo sapiens, NCI-60 five dose
Method: as §3

caspase 3/7 = assay: Caspase 3/7 functional assay (Caspase-Glo 3/7); assay type: cell-based, human; settings: 1 μM, 24 h, A375 or PC-3 cells, N = 3
Method: The caspase 3/7 activity of cancer cells treated by DMSO control or compound of interest was analyzed using Glo Caspase-Glo 3/7 kit from Promega Corporation (Madison, WI) as per manufacturer’s instructions in similar protocol as described before. The readings of relative luminescence unit were normalized by the cell viability read from the same well determined by compatible CytoTox-Fluor Cytotoxicity assay kit (Promega, WI).

survivin = biological target: T3, survivin (Homo sapiens, UniProt O15392); assay: Western blotting of survivin level, PC-3 cells; assay type: cell-based; settings: 24 h
T3 construct: endogenous in cells; host or cells: A375 cells
T3 sequence (O15392 whole entry): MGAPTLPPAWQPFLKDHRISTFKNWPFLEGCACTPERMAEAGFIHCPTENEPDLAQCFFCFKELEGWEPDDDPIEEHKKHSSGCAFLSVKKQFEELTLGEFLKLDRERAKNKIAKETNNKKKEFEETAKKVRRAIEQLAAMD

CYP2D6 = biological target: T4, CYP2D6 (Homo sapiens, UniProt P10635); assay: Cytochrome P450 inhibition, CYP2D6; assay type: in vitro ADME; settings: probe dextromethorphan, substrate dextromethorphan, human liver microsomes 0.1 mg/mL, read-out: % inhibition of control values, CYP2D6
T4 construct: tissue Eurofins Panlabs Inc. (contract research service) Study Number 100017964; host or cells: human liver microsomes
T4 sequence (P10635 whole entry): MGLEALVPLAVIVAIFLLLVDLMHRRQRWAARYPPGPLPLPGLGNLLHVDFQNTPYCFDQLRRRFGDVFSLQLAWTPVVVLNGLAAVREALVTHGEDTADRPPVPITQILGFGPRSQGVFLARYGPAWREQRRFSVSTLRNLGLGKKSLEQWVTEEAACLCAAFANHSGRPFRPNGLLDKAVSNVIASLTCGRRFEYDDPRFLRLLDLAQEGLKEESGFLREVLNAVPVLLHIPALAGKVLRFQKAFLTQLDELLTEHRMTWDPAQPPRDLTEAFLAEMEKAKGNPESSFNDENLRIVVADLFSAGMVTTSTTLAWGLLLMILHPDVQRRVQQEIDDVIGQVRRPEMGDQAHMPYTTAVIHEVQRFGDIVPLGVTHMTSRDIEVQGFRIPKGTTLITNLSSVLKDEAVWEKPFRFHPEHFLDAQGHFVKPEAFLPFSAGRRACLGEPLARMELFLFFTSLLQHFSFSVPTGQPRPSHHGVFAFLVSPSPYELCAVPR
Method: as §1

XIAP, cIAP1 or cIAP2 = assay: DARTS assay, other IAPs; assay type: binding, human; settings: 20 μM, pronase-digested A375 or M14 cell lysates
Method: Drug affinity responsive target stability (DARTS) assay was performed to identify the protein targets of UC-112 analogs in A375 or M14 cell lysates following the protocols described in the literature. Briefly, A375 or M14 lysates were prepared in non-denaturing M-PER lysis buffer (Thermo Fisher Scientific, Waltham, MA) with protease and phosphatase inhibitors. Then TNC (Tris, NaCl, CaCl2) buffer was added into cell lysates before the total protein concentration of lysate being determined by BCA protein assay kit (Thermo Fisher Scientific, Waltham, MA). The lysates were split into two groups: one group was added with compound of interest solution, the other group was added with same amount of vehicle (DMSO). The samples were mixed thoroughly and incubated at room temperature for 1 h. Then 10 mg/mL pronase stock solution was added into both compound treated or vehicle control groups to achieve the final dilution of 1:100, 1:300, 1:1000 and 1:3000. One aliquot of each group was kept as un-digested control. The proteolysis was performed at room temperature for 30 min before ice cold protease inhibitor stock being added into the mixture. Then SDS loading buffer was added into all the samples and heated to 70°C for 10 min. Finally, the results were analyzed by SDS-PAGE and immunoblotting.

CC(C)c1ccc(COCc2cc(CN3CCCC3)c(O)c3ncccc23)cc1 [4g, 5-(((4-isopropylbenzyl)oxy)methyl)-7-(pyrrolidin-1-ylmethyl)quinolin-8-ol]
Effect on levels of other IAPs [1]: minimally affected | inhibition at 10 min (CYP2C9): 17% | solubility [2]: 149 µM (≈ 58.1 µg/mL) | IC50 (PC-3): 700 ± 100 nM | IC50 (A375): 900 ± 100 nM | inhibition at 10 min (CYP2B6): 21% | GI50 [3]: 52.5 nM | microsomal CLint at 100 nM ([4]; human): 137 µL/min/mg | half-life at 100 nM ([4]; test concentration 100 nM): 51 min | GI50 (HCT-15 (colon cancer)): 46.8 nM | GI50 [5]: 50.1 nM | Caspase 3/7 activation relative to DMSO control group (caspase 3/7): up to 4 folds | Reduction of survivin level, PC-3 (survivin; 300 nM, lane density by ImageJ): over 50% | Effect on survivin level, PC-3 (survivin; gradient increasing dose): dose-dependently suppressed survivin level | inhibition at 10 min (CYP2D6): 87% | Effect on protease susceptibility of other IAPs (DARTS) (XIAP, cIAP1 or cIAP2): negligible effects
